Source: patent US12415987B2, “Methods and composition for producing and using immune cells and stem cells for cell-based therapies” (Angeles Therapeutics, Inc., priority 2016, dated 2025)

Experiments:
Assay type in all cases: cell-based, human
Pgp^+ T cells = test: Chemotherapeutic selection of T cells: Pgp+ enrichment by DiOC2(3) efflux assay; conditions: for % pgp+ (out of live cells): 8 days post-treatment; for % Pgp^+ (DiOC2(3)-dull) (out of live cells): 2 days post-treatment; for % Pgp+ (DiOC2(3)-dull) (gated on live cells): 7 days post-treatment;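 for all read-outs here: CD3-isolated T cells exposed to chemotherapeutics, then loaded with DiOC2(3) and left to efflux dye, PI stained, flow cytometry, Pgp+ cells read as DiOC2(3)-dull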
Method: Half (6 million) of the T cells were left untreated while the remaining half were treated with 10 μM of TH9402 compound. Cells were incubated at 37° C. in a water bath in dark for 40 min, washed with T-cell medium and then resuspended in TH9402-free T-cell medium. Cells were allowed to efflux TH9402 at 37° C. in dark in 10 ml of T cell medium for 2 h. Cells were centrifuged and re-suspended in fresh medium. Each sample was then plated in 2 wells of two different 6-well plates. One plate was left unexposed to light and the second plate was exposed for 1 h to light (1000×10 Lux units) from an LED lamp. […] After light exposure, cells were incubated in the XVIVO T cell medium with 5 ng/ml IL7 at 37° C. for 2 days in a 5% CO2 incubator. After 2 days, an aliquot of the cells were stained at 4° C. for 40 min with DiOC2(3) (60 ng/ml) in 10 ml RPMI with 10% FBS medium. DiOC2(3) is a known substrate of Pgp. Cells were centrifuged, washed, resuspended in 10 ml of dye-free RPMI-10% FBS medium to efflux dye at 37° C. for 90 min. After Dye efflux, the cells were stained with Propidium iodide (PI) and examined by flow cytometry.
(§4) T cells were isolated using CD3 microbeads. Cells were resuspended in T cell culture medium and treated under the following conditions. • 1. High dose Vincristine Treatment: Cells were treated with Vincristine (Sigma) at doses of 100, 250, 500, 750, 1000 ng/ml for 24 h. The following day, the medium was changed and cells cultured in Vincristine-free medium. • 2. Intermediate Dose Vincristine Treatment: Cells were treated with vincristine at intermediate doses of 5, 10, 20, 30, 50 ng/ml with continuous exposure of the drug thereafter. • 3. Low dose Vincristine Treatment: Cells were treated with vincristine at low doses 0.5, 1, 2, 2.5, 3 ng/ml with continuous exposure to the drug thereafter.
(§5) Cells were treated with Etoposide at dose 100, 500, 1000 nM • 6. Cells were treated with Adriamycin (doxorubicin) at 0.1, 0.5, 1 μg/ml
(§6) T cells treated with intermediate and high dose of vincristine were checked for Pgp^+ enrichment by DiOC2(3) efflux assay and cell death by Propidium iodide staining after 2 days of treatment. Cells were analyzed by flow cytometry.

T cells [1] = test: Chemotherapeutic selection of T cells: cell death by propidium iodide staining;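 note: CD3 microbead-isolated T cells cultured with chemotherapy drugs, dead cells scored as propidium iodide-positive by flow cytometry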
Method: as §4, §5, §6

PBMC = test: Photodynamic TH9402 experiment repeated with PBMC; conditions: PBMC rather than purified T cells
Pgp-expressing T cells = test: Photodynamic cell therapy with TH9402: Pgp+ T cells by DiOC2(3) efflux (and CD62L staining); conditions: for % Pgp^+ cells (DiOC2(3)-dull): after 2 days
Method: (§1) T cells were isolated using PAN T-cell isolation kit (Miltenyi cat no. 130-096-535) from buffy coat preparation following Ficoll-Hypaque separation and RBC lysis as described above. 12 million T cells were resuspended at 1 million cells/ml in XVIVO T cell medium (Lonza) supplemented with 5 ng/ml IL7. Half (6 million) of the T cells were left untreated while the remaining half were treated with 10 μM of TH9402 compound. Cells were incubated at 37° C. in a water bath in dark for 40 min, washed with T-cell medium and then resuspended in TH9402-free T-cell medium. Cells were allowed to efflux TH9402 at 37° C. in dark in 10 ml of T cell medium for 2 h. Cells were centrifuged and re-suspended in fresh medium. Each sample was then plated in 2 wells of two different 6-well plates. One plate was left unexposed to light and the second plate was exposed for 1 h to light (1000×10 Lux units) from an LED lamp. Alternatively, light treatment can be achieved by exposure to a fluorescent light-scanning device (PDCT-Xerox Series 4, Theratechnologies) delivering 5 J/cm^2 at wavelength of 514 nm. After light exposure, cells were incubated in the XVIVO T cell medium with 5 ng/ml IL7 at 37° C. for 2 days in a 5% CO2 incubator. After 2 days, an aliquot of the cells were stained at 4° C. for 40 min with DiOC2(3) (60 ng/ml) in 10 ml RPMI with 10% FBS medium. DiOC2(3) is a known substrate of Pgp. Cells were centrifuged, washed, resuspended in 10 ml of dye-free RPMI-10% FBS medium to efflux dye at 37° C. for 90 min. After Dye efflux, the cells were stained with Propidium iodide (PI) and examined by flow cytometry. […] Furthermore, in the group that was treated with the TH9402 compound and then exposed to light, there was further enrichment for Pgp-expressing T cells (from 10% to 80%).
(§2) After 6 days, 250 μl cell aliquot from T cells were stained with DiOC2(3), allowed to efflux the dye and then stained with CD62L-APC, a marker present on human memory stem T cells (TSCM) with stem like properties.
(§3) After 9 days, 1 ml cell aliquot from T cells were stained with DiOC2(3), allowed to efflux the dye and then stained with CD62L-APC, a marker present on human memory stem T cells (TSCM) with stem like properties. Cells were then analyzed by flow cytometry. The % of cells in the different fractions are shown in FIG. 2 and the following table which show there is a significant decline in cell viability following exposure to light in both TH9402-treated and untreated cells.

T cells [2] = test: Photodynamic cell therapy with TH9402: live T cells by flow cytometry / propidium iodide; conditions: for % live cells (Propidium iodide negative): after 9 days
Method: as §1, §2, §3

[3] = 10 μM TH9402, 1 h exposure to light
[4] = 10 μM TH9402, 1 h exposure to light, after 6 days
[5] = 10 μM TH9402, 1 h exposure to light, after 9 days
[6] = 10 μM TH9402, unexposed to light
[7] = 10 μM TH9402, unexposed to light, after 6 days
[8] = 10 μM TH9402, unexposed to light, after 9 days
[9] = 100 ng/ml for 24 h then drug-free medium
[10] = 250 ng/ml for 24 h then drug-free medium
[11] = 500 ng/ml for 24 h then drug-free medium
[12] = 750 ng/ml for 24 h then drug-free medium
[13] = 1 μg/ml for 24 h then drug-free medium

SMILES: COc1cccc2c1C(=O)c1c(O)c3c(c(O)c1C2=O)C[C@@](O)(C(=O)CO)C[C@@H]3O[C@H]1C[C@H](N)[C@H](O)[C@H](C)O1 [Adriamycin, doxorubicin]
- enrichment of Pgp^+ or DiOC2(3)-dull cells (in words) (Pgp^+ T cells; 1 μg/ml, after 8 days of treatment): significant enrichment
- % pgp+ (out of live cells) (Pgp^+ T cells; 0.1 μg/ml): 16%
- % pgp+ (out of live cells) (Pgp^+ T cells; 0.5 μg/ml): 16%
- % pgp+ (out of live cells) (Pgp^+ T cells; 1 μg/ml): 27%
- % Cell Death (PI+ cells) (T cells [1]; 8 days post-treatment, 0.1 μg/ml): 5%
- % Cell Death (PI+ cells) (T cells [1]; 8 days post-treatment, 0.5 μg/ml): 7%
- % Cell Death (PI+ cells) (T cells [1]; 8 days post-treatment, 1 μg/ml): 12%

SMILES: COc1cc([C@@H]2c3cc4c(cc3[C@@H](O[C@@H]3O[C@@H]5CO[C@@H](C)O[C@H]5[C@H](O)[C@H]3O)[C@H]3COC(=O)[C@H]23)OCO4)cc(OC)c1O [Etoposide]
- % pgp+ (out of live cells) (Pgp^+ T cells; 0.1 uM): 15%
- % pgp+ (out of live cells) (Pgp^+ T cells; 1 uM): 15%
- % pgp+ (out of live cells) (Pgp^+ T cells; 0.5 unM): 16%
- % Cell Death (PI+ cells) (T cells [1]; 8 days post-treatment, 0.1 uM): 5%
- % Cell Death (PI+ cells) (T cells [1]; 8 days post-treatment, 1 uM): 5%
- % Cell Death (PI+ cells) (T cells [1]; 8 days post-treatment, 0.5 unM): 4%

SMILES: CO[C@H]1C[C@@H]2CC[C@@H](C)[C@@](O)(O2)C(=O)C(=O)N2CCCC[C@H]2C(=O)O[C@H]([C@H](C)C[C@@H]2CC[C@@H](O)[C@H](OC)C2)CC(=O)[C@H](C)/C=C(\C)[C@@H](O)[C@@H](OC)C(=O)[C@H](C)C[C@H](C)/C=C/C=C/C=C/1C [Rapamycin]
- % pgp+ (out of live cells) (Pgp^+ T cells; 100 ng/ml): 15%
- % Cell Death (PI+ cells) (T cells [1]; 8 days post-treatment, 100 ng/ml): 11%

SMILES: COC(=O)c1ccccc1-c1c2ccc(=N)c(Br)c-2oc2c(Br)c(N)ccc12 [TH9402]
- enrichment of Pgp-expressing cells, experiment repeated with PBMC (PBMC): Essentially similar results
- % Pgp^+ cells (DiOC2(3)-dull) (Pgp-expressing T cells; [3]): 80%
- % Pgp^+ (DiOC2(3)-dull cells (based on dye efflux) (gated on live cells)) (Pgp-expressing T cells; [4]): 70%
- % Pgp^+ (DiOC2(3)-dull), CD62L+ cells (gated on live cells) (Pgp-expressing T cells; [4]): 69%
- % Pgp^+ (DiOC2(3)-dull cells (based on dye efflux) (gated on live cells)) (Pgp-expressing T cells; [5]): 79%
- % Pgp^+ (DiOC2(3)-dull), CD62L+ cells (gated on live cells) (Pgp-expressing T cells; [5]): 67%
- % Pgp^+ cells (DiOC2(3)-dull) (Pgp-expressing T cells; [6]): 10%
- % Pgp^+ (DiOC2(3)-dull cells (based on dye efflux) (gated on live cells)) (Pgp-expressing T cells; [7]): 4%
- % Pgp^+ (DiOC2(3)-dull), CD62L+ cells (gated on live cells) (Pgp-expressing T cells; [7]): 2%
- % Pgp^+ (DiOC2(3)-dull cells (based on dye efflux) (gated on live cells)) (Pgp-expressing T cells; [8]): 45%
- % Pgp^+ (DiOC2(3)-dull), CD62L+ cells (gated on live cells) (Pgp-expressing T cells; [8]): 21%
- % live cells (P1) (T cells [2]; 10 μM TH9402, 1 h exposure to light, after 2 days): 10%
- % live cells (P1) (T cells [2]; [4]): 14%
- % live cells (Propidium iodide negative) (T cells [2]; [3]): 27%
- % live cells (P1) (T cells [2]; 10 μM TH9402, unexposed to light, after 2 days): 78%
- % live cells (P1) (T cells [2]; [7]): 75%
- % live cells (Propidium iodide negative) (T cells [2]; [6]): 79%

SMILES: COc1ccc(CCN(C)CCCC(C#N)(c2ccc(OC)c(OC)c2)C(C)C)cc1OC (stereo not drawn) [Verapamil]
- % Cell Death (PI+ cells) (T cells [1]; 8 days post-treatment, 1 uM): 4%
- % Cell Death (PI+ cells) (T cells [1]; 8 days post-treatment, 5 uM): 3%
- % Cell Death (PI+ cells) (T cells [1]; 8 days post-treatment, 10 uM): 3%

SMILES: CC[C@]1(O)C[C@H]2CN(CCc3c([nH]c4ccccc34)[C@@](C(=O)OC)(c3cc4c(cc3OC)N(C=O)[C@H]3[C@@](O)(C(=O)OC)[C@H](OC(C)=O)[C@]5(CC)C=CCN6CC[C@]43[C@@H]65)C2)C1 [Vincristine]
- % Pgp^+ (DiOC2(3)-dull) (out of live cells) (Pgp^+ T cells; 5 ng/ml, continuous exposure): 8%
- % Pgp^+ (DiOC2(3)-dull) (out of live cells) (Pgp^+ T cells; 10 ng/ml, continuous exposure): 9%
- % Pgp^+ (DiOC2(3)-dull) (out of live cells) (Pgp^+ T cells; 20 ng/ml, continuous exposure): 9%
- % Pgp^+ (DiOC2(3)-dull) (out of live cells) (Pgp^+ T cells; 30 ng/ml, continuous exposure): 11%
- % Pgp^+ (DiOC2(3)-dull) (out of live cells) (Pgp^+ T cells; 50 ng/ml, continuous exposure): 10%
- % Pgp^+ (DiOC2(3)-dull) (out of live cells) (Pgp^+ T cells; [9]): 11%
- % Pgp^+ (DiOC2(3)-dull) (out of live cells) (Pgp^+ T cells; [10]): 11%
- % Pgp^+ (DiOC2(3)-dull) (out of live cells) (Pgp^+ T cells; [11]): 13%
- % Pgp^+ (DiOC2(3)-dull) (out of live cells) (Pgp^+ T cells; [12]): 14%
- % Pgp^+ (DiOC2(3)-dull) (out of live cells) (Pgp^+ T cells; [13]): 14%
- % Pgp+ (DiOC2(3)-dull) (gated on live cells) (Pgp^+ T cells; 0.5 ng/ml, continuous exposure): 7%
- % Pgp+ (DiOC2(3)-dull) (gated on live cells) (Pgp^+ T cells; 1 ng/ml, continuous exposure): 7%
- % Pgp+ (DiOC2(3)-dull) (gated on live cells) (Pgp^+ T cells; 2 ng/ml, continuous exposure): 7%
- % Pgp+ (DiOC2(3)-dull) (gated on live cells) (Pgp^+ T cells; 2.5 ng/ml, continuous exposure): 7%
- % Pgp+ (DiOC2(3)-dull) (gated on live cells) (Pgp^+ T cells; 3 ng/ml, continuous exposure): 9%
- % Pgp+ (DiOC2(3)-dull) (gated on live cells) (Pgp^+ T cells; 5 ng/ml, continuous exposure): 8%
- % Pgp+ (DiOC2(3)-dull) (gated on live cells) (Pgp^+ T cells; 10 ng/ml, continuous exposure): 10%
- % Pgp+ (DiOC2(3)-dull) (gated on live cells) (Pgp^+ T cells; 20 ng/ml, continuous exposure): 10%
- % Pgp+ (DiOC2(3)-dull) (gated on live cells) (Pgp^+ T cells; 50 ng/ml, continuous exposure): 9%
- % Pgp+ (DiOC2(3)-dull) (gated on live cells) (Pgp^+ T cells; [9]): 13%
- % Pgp+ (DiOC2(3)-dull) (gated on live cells) (Pgp^+ T cells; [10]): 11%
- % Pgp+ (DiOC2(3)-dull) (gated on live cells) (Pgp^+ T cells; [11]): 9%
- % Pgp+ (DiOC2(3)-dull) (gated on live cells) (Pgp^+ T cells; [12]): 10%
- % Pgp+ (DiOC2(3)-dull) (gated on live cells) (Pgp^+ T cells; [13]): 18%
- enrichment of Pgp^+ cells (in words) (Pgp^+ T cells; higher dose treatments, after 2 days): modest enrichment
- % Cell Death (PI+ cells) (T cells [1]; 2 days post-treatment, 5 ng/ml, continuous exposure): 13%
- % Cell Death (PI+ cells) (T cells [1]; 2 days post-treatment, 10 ng/ml, continuous exposure): 15%
- % Cell Death (PI+ cells) (T cells [1]; 2 days post-treatment, 20 ng/ml, continuous exposure): 15%
- % Cell Death (PI+ cells) (T cells [1]; 2 days post-treatment, 30 ng/ml, continuous exposure): 20%
- % Cell Death (PI+ cells) (T cells [1]; 2 days post-treatment, 50 ng/ml, continuous exposure): 15%
- % Cell Death (PI+ cells) (T cells [1]; 2 days post-treatment, 100 ng/ml for 24 h then drug-free medium): 28%
- % Cell Death (PI+ cells) (T cells [1]; 2 days post-treatment, 250 ng/ml for 24 h then drug-free medium): 31%
- % Cell Death (PI+ cells) (T cells [1]; 2 days post-treatment, 500 ng/ml for 24 h then drug-free medium): 27%
- % Cell Death (PI+ cells) (T cells [1]; 2 days post-treatment, 750 ng/ml for 24 h then drug-free medium): 30%
- % Cell Death (PI+ cells) (T cells [1]; 2 days post-treatment, 1 μg/ml for 24 h then drug-free medium): 31%
- % Cell Death (PI+ cells) (T cells [1]; 7 days post-treatment, 0.5 ng/ml, continuous exposure): 10%
- % Cell Death (PI+ cells) (T cells [1]; 7 days post-treatment, 1 ng/ml, continuous exposure): 12%
- % Cell Death (PI+ cells) (T cells [1]; 7 days post-treatment, 2 ng/ml, continuous exposure): 8%
- % Cell Death (PI+ cells) (T cells [1]; 7 days post-treatment, 2.5 ng/ml, continuous exposure): 10%
- % Cell Death (PI+ cells) (T cells [1]; 7 days post-treatment, 3 ng/ml, continuous exposure): 14%
- % Cell Death (PI+ cells) (T cells [1]; 7 days post-treatment, 5 ng/ml, continuous exposure): 9%
- % Cell Death (PI+ cells) (T cells [1]; 7 days post-treatment, 10 ng/ml, continuous exposure): 9%
- % Cell Death (PI+ cells) (T cells [1]; 7 days post-treatment, 20 ng/ml, continuous exposure): 9%
- % Cell Death (PI+ cells) (T cells [1]; 7 days post-treatment, 50 ng/ml, continuous exposure): 14%
- % Cell Death (PI+ cells) (T cells [1]; 7 days post-treatment, 100 ng/ml for 24 h then drug-free medium): 16%
- % Cell Death (PI+ cells) (T cells [1]; 7 days post-treatment, 250 ng/ml for 24 h then drug-free medium): 25%
- % Cell Death (PI+ cells) (T cells [1]; 7 days post-treatment, 500 ng/ml for 24 h then drug-free medium): 26%
- % Cell Death (PI+ cells) (T cells [1]; 7 days post-treatment, 750 ng/ml for 24 h then drug-free medium): 29%
- % Cell Death (PI+ cells) (T cells [1]; 7 days post-treatment, 1 μg/ml for 24 h then drug-free medium): 23%
